Data published in the supplement of paper PMC11997997.

Tests used:
[1] = tested on: Mycobacterium tuberculosis CDC1551 (intracellular, in murine BMDM); assay: area under intracellular growth-inhibition dose-response curve (AUC (% inhibition x dose, relative)); higher = more potent; conditions: duration: 6 days; dose range: 0.13-80 uM, 8 points
Summary of the method: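 Macrophages derived from primary murine bone marrow were infected for 1 h at multiplicity of infection 1 with luciferase-expressing M. tuberculosis CDC1551, then treated for 6 days at final concentrations of 80–0.13 μM. Bright-Glo luciferin signal, normalised to a reference drug control and the lowest-concentration wells, gave the growth readout. Area under the growth-inhibition dose–response curve was then calculated in GraphPad Prism.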

[2] = tested on: murine bone marrow-derived macrophages; assay: area under cytotoxicity dose-response curve (AUC (% cytotoxicity x dose, relative)); higher = more cytotoxic; conditions: duration: 6 days; dose range: 0.13-80 uM, 8 points
Summary of the method: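 Primary murine bone marrow-derived macrophages in opaque 384-well plates were exposed to an 8-point, 2.5-fold dilution series (final 80–0.13 μM) for 6 days at 37 °C in 5% CO2. Viability was read with Promega's CellTiter-Glo luminescence assay, and percent cytotoxicity was normalised to vehicle and positive control wells. Cytotoxicity is reported as the area under the dose–response curve, calculated in GraphPad Prism version 10.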

Structure (SMILES) | area under intracellular growth-inhibition dose-response curve [1] | area under cytotoxicity dose-response curve [2]
CC(=O)O[C@H]1C[C@@]2(C)[C@@H](C[C@@H](O)[C@H]3[C@@]4(C)CC[C@@H](O)[C@@H](C)[C@@H]4CC[C@@]32C)/C1=C(\CCC=C(C)C)C(=O)O | 206 | < 0
Cc1cc(C(F)F)nn1CC(=O)NC1C(=O)N2C(C(=O)O)=C(CSc3nnnn3C)CSC12 (configuration not stated) | 86.3 | 110
CCC(NC(=O)Nc1nnc(C(F)(F)F)s1)(C(F)(F)F)C(F)(F)F | 143 | 14.5
O=C(NCc1ccco1)c1cc2c(s1)CCCCC2 | 255 | 42.6
CC(C)c1ccc(NC(=S)NC2CCCCCC2)cc1 | 141 | < 0
NC(=S)N/N=C/c1ccc(-n2nncc2-c2ccc(Cl)cc2)cc1 | 216 | 47.7
CCOc1ccc2ccccc2c1/C=N/NC(=O)c1ccncc1 | 270 | < 0
O=C(NC1CCCCCC1)c1cccs1 | 243 | < 0
Cc1ccc2[nH]c(/C(C#N)=C\c3ccc([N+](=O)[O-])o3)nc2c1 | 8.24 | 76.5
C/C=C/C=N\NC(=O)c1ccncc1 | 259 | 9.36
S=C(Nc1ccc(Oc2ccccc2)cc1)NC1CCCCCC1 | 155 | 210
O=C(NC1CCCCC1)c1ccc([N+](=O)[O-])cc1 | 218 | 15.6
Cc1cc(OCCCCn2ccnc2)cc(C)c1Cl.Cl | 174 | 24
CCCCCCCn1c(=O)c(C(=O)Nc2cnccn2)c(O)c2ccccc21 | 66 | 7.68
Cc1nc(SCc2ccccc2)c2oc3ccccc3c2n1 | 143 | 34.5
CCCOc1ccccc1OCC(=O)N1CCN(S(=O)(=O)c2ccc(Cl)cc2)CC1 | 48.8 | 126
Cc1cnc(C(=O)OCC(=O)Nc2cccc3ccccc23)cn1 | 15.8 | < 0
Cc1ccccc1OCC(=O)NC(=S)Nc1ccc(N2CCCC2)cc1 | 182 | 105
Cc1ccccc1NC(=O)COC(=O)c1cc(S(=O)(=O)N2CCOCC2)ccc1C | 34.5 | 23.2
CC[C@H](CO)NCCN[C@H](CC)CO.Cl | 68.5 | 52.1
Cc1ccc2nc(-c3ccc(NC(=S)NC(=O)C(C)C)cc3)sc2c1 | 174 | 32.6
NC(=S)N/N=C/c1ccc(-c2cccc([N+](=O)[O-])c2)o1 | 206 | 51.4
CC(=O)NC(=S)Nc1ccc(NC(=O)c2cccnc2Cl)cc1 | 262 | < 0
CCCCCC(=O)NC(=S)Nc1ccc(NC(=O)c2ccco2)cc1 | 274 | 0.441
CC(NC(=O)c1cccc(Cl)c1)C1CC2CCC1C2 (configuration not stated) | 225 | 48.5
O=C(NNC(=S)Nc1ccc(C(=O)O)c(O)c1)c1ccncc1 | 170 | 30.7

Structure (SMILES) | area under intracellular growth-inhibition dose-response curve [1] | area under cytotoxicity dose-response curve [2]
O=C(Nc1cccc([N+](=O)[O-])c1)NC1CCCCCCC1 | 228 | 14
N#Cc1ccc(OCC(=O)N2CCN(S(=O)(=O)c3ccc(Cl)s3)CC2)cc1 | 31.9 | 65.3
CC[C@H]1OC(=O)[C@H](C)[C@@H](O[C@H]2C[C@@](C)(OC)[C@@H](O)[C@H](C)O2)[C@H](C)[C@@H](O[C@@H]2O[C@H](C)C[C@H](N(C)C)[C@H]2O)[C@](C)(OC)C[C@@H](C)C(=O)[C@H](C)[C@@H](O)[C@]1(C)O | 246 | 48.5
CC(C)Oc1ccc(C(=O)NC(=S)Nc2ccc(CN3CCOCC3)cc2)cc1 | 136 | 2.7
CC(C)[C@H](CN1CCC[C@H]1CN1C(N)=NC[C@@H]1Cc1ccccc1)N1C[C@@H](Cc2ccccc2)N(CCc2ccc(Cl)c(Cl)c2)C1=N | 211 | 52.7
CC1CCN(C(=O)C2COc3ccccc3O2)CC1 (configuration not stated) | 265 | < 0
O=C(NCc1ccc2c(c1)OCO2)c1cccc(F)c1 | 222 | < 0
COc1cc(/C=N/NC(=O)C23CC4CC(CC(C4)C2)C3)cc(Br)c1O | 154 | 23.8
COc1ccc(C(=O)Oc2cccc(/C=N/NC(N)=S)c2)cc1 | 145 | 65
CCOC(=O)CCCc1ccc(/C(C)=N/NC(N)=S)cc1 | 156 | 65.1
CC(=O)Nc1sc(N/N=C\c2ccc(O)cc2)nc1-c1cccs1 | 194 | 155
O=C(NC1CCCCCCC1)c1ccco1 | 234 | 3.98
Cc1ccccc1-n1c(SCC(=O)N/N=C/c2c(C)nn(-c3ccccc3)c2C)nc2ccccc2c1=O | 203 | 13.8
CCOc1ccccc1OCCCC(=O)Nc1cccc(S(=O)(=O)N2CCOCC2)c1 | 74 | 99
O=C(O)C(=O)O.O=[N+]([O-])c1ccc(N2CCN(Cc3ccc([N+](=O)[O-])o3)CC2)cc1 | 245 | 45.2
CC1(C)C2CCC1(C)C(NC(=O)/C=C/c1ccccc1)C2 (configuration not stated) | 242 | 58.5
Cc1nc(SCc2cccc(F)c2)c2oc3ccccc3c2n1 | 186 | < 0
CC(C)C(=O)N1CCN(c2ccc(NC(=O)c3ccc([N+](=O)[O-])o3)cc2Cl)CC1 | 109 | 79.8
C/C(=N\NC(N)=S)c1ccc(-n2ccnc2)cc1 | 195 | 69
CCCN1CNC(=S)N(c2ccc(C(=O)OCC)cc2)C1 | 83.8 | 9
Cc1nnc(NS(=O)(=O)c2ccc(N)cc2)s1 | 121 | 29.3
Cl.c1ccc(-c2nc(NCCCn3ccnc3)c3oc4ccccc4c3n2)cc1 | 172 | 34.7
Cc1ccc(C[n+]2c(-c3ccc(C)cc3)cc(-c3ccc(C)cc3)cc2-c2ccc(C)cc2)cc1.[O-][Cl+3]([O-])([O-])[O-] | 253 | 59.3
CCOc1ccc2oc(C(=O)OCC(=O)NC3CCCCC3)c(C)c2c1 | 119 | < 0
CCCCNC(=S)Nc1ccc2c[nH]nc2c1 | 190 | 37.5
